Data reported in patent publication US20060189699A1, “Antimicrobial trinervitane derivatives” (Commonwealth Scientific and Industrial Researh Org, priority 2003, published 2006).
“Also recorded” adds a separate entry of the source. Read-outs that look alike come from different tables or passages of the source.

Assays:
[1] = tested on: Bacillus subtilis (ATCC Strain 6633); experiment: modified agar bioassay for weak antimicrobial activity (clear zone); type: cell-based; conditions: for level of antimicrobial activity relative to trinervitadienes previously isolated from N. triodiae: screening assays, qualitative, potency not determined quantitatively
Experimental: Extracts of the worker and soldier castes of the nasute termite species Nasutitermes exitiosus (Hill) (Isoptera:Termitidae) were screened against Bacillus subtilis (ATCC Strain 6633) at a concentration of 4.0 mg/ml in a bioassay. […] The only difference between the assay used in the current work and that described previously (WO 01/90035) is that in the current case the density of bacterial cells in the Luria-Bertani agar medium was ten times lower than that described in the earlier specification.
Twelve mL of a 70% methanol extract of N. exitiosus soldiers (containing 86 mg of solute) was fractionated by reverse-phase HPLC using a semi-preparative column at a flow rate of 4 ml/min and a gradient from water containing 0.05% (v/v) trifluroacetic acid to 100% acetonitrile over 20 minutes and then 100% acetonitrile for a further 15 minutes. The UV absorbance of the eluant was monitored at 230 nm. Fractions were collected over 35 minutes. Corresponding fractions were pooled across replicate separation runs and the pooled fractions were evaporated to dryness under nitrogen. Residues of the fractions were redissolved in HPLC grade water (fractions from 1-8 minutes), 70% aqueous methanol (9-15 minutes), or methanol (16-35 minutes).

[2] = tested on: Bacillus subtilis; conditions: WO 01/90035, as compound 9; cited from earlier work
[3] = isolated HPLC sub-fractions / purified compounds
[4] = purified components of fraction F2, modified antimicrobial assay

| Compound | antimicrobial / biological activity [1, 3] | level of antimicrobial activity relative to trinervitadienes previously isolated from N. triodiae [1] | antimicrobial / biological activity [1] | clear zone diameter ([1]; pooled reverse-phase HPLC fractions of soldier extract, quantity corresponding to 20 μL of crude extract) [mm] | clear zone diameter [1, 4] [mm] | antimicrobial activity shown in the earlier patent specification [2] |
| --- | --- | --- | --- | --- | --- | --- |
| 1(15),8(9)-trinervitadiene-3α-ol-2-one | biologically active; also recorded: antimicrobial compound; also recorded: confirmed | qualitatively similar levels of antimicrobial activity |  |  |  |  |
| 1(15),8(19)-trinervitadiene-2β,3α,9α-triol 2,3,9-triacetate [U] |  | qualitatively similar levels of antimicrobial activity | biologically active; also recorded: antimicrobial activity; also recorded: confirmed |  |  |  |
| C=C1/C2=C\C[C@@H](C)C/C=C/C(=C)[C@@H]3CC[C@@](C)([C@H]13)[C@@H](O)[C@@H]2O [P, 9E-1(14),8(19),9(10),15(17)-trinervitatetraene-2β,3α-diol] |  | qualitatively similar levels of antimicrobial activity |  | 4 |  |  |
| C=C1/C2=C\C[C@@H](C)CCCC(=C)[C@@H]3CC[C@@](C)([C@H]13)[C@@H](O)[C@@H]2O [Q, 1(14),8(19),15(17)-trinervitatriene-2β,3α-diol] | biologically active | qualitatively similar levels of antimicrobial activity |  |  | 4 |  |
| C=C1/C2=C\C[C@@H](C)CCC/C(C)=C3/CC[C@@](C)([C@H]13)[C@@H](O)[C@@H]2O [R, 1(14),7(8),15(17)-trinervitatriene-2β,3α-diol] | biologically active | qualitatively similar levels of antimicrobial activity |  |  | 5 |  |
| C/C1=C/CC[C@H](C)CCC2C(C)[C@@H]3C1CC[C@]3(C)[C@@H](O)[C@@H]2O (stereo partly drawn) [S, 1(15),8(9)-trinervitadiene-2β,3α-diol] | biologically active; also recorded: confirmed |  |  |  |  | antimicrobial activity |
